Laboratory results taken from ChEMBL document CHEMBL5370619, “Targeting the Tyrosine Kinase 2 (TYK2) Pseudokinase Domain: Discovery of the Selective TYK2 Inhibitor ABBV-712” (J Med Chem, 2023).
Values after ≈ are worked out from the molar mass of the structure shown.

Legend:
[1] = molecular target: T1, Non-receptor tyrosine-protein kinase TYK2 (Homo sapiens, UniProt P29597); assay: Inhibition of recombinant human N-terminal His-tagged TYK2 JH2 domain (577 to 870 residues) expressed in Sf9 cells using N-(2-(2-(2-((3-(5-acetamido-3-(3-(N,N-dimethylsulfamoyl)phenyl)-1H-pyrrolo[2,3-c]pyridin-1-yl)propyl)amino)-2-oxoethoxy)ethoxy)ethyl)-2',7'-difluoro-3',6'-dihydroxy-3-oxo-3H-spiro[isobenzofuran-1,9'-xanthene]-5-carboxamide trifluoroacetate as substrate incubated for 60 mins by TR-FRET assay
T1 sequence (P29597 whole entry, the tested form may be a part): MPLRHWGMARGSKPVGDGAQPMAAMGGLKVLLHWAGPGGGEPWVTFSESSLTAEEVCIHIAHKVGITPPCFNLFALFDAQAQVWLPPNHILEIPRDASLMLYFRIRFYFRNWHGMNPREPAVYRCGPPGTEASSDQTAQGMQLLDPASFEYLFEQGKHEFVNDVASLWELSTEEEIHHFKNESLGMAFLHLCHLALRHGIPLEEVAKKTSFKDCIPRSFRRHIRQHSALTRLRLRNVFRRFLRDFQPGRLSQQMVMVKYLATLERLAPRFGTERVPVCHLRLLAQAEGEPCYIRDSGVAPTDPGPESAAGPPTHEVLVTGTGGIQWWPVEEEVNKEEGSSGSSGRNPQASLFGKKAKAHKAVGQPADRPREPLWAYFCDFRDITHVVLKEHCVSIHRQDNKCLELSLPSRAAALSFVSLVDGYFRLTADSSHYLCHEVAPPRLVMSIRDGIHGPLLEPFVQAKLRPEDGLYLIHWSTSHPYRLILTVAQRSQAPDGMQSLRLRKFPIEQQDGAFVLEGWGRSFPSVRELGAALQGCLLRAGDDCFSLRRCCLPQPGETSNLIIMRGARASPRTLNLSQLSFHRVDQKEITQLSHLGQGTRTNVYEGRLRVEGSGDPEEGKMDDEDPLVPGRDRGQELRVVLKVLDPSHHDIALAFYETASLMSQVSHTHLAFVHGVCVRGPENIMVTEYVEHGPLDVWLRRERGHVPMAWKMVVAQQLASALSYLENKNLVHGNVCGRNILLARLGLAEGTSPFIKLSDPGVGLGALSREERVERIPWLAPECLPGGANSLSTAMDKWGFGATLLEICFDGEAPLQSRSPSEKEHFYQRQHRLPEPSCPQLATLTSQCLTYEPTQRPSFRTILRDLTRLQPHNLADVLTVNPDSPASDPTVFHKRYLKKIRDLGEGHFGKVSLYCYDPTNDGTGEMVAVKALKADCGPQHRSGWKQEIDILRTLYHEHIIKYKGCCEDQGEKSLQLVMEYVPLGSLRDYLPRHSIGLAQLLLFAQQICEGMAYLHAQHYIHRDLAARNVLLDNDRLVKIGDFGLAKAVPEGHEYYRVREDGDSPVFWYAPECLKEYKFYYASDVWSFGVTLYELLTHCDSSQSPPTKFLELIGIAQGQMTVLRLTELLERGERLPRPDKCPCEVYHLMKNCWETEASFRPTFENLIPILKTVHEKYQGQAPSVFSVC

[2] = molecular target: T1, Non-receptor tyrosine-protein kinase TYK2; assay: Inhibition of TYK2 in human T-blast cells assessed as IL-12 induced STAT4 phosphorylation at Tyr694 residue preincubated for 30 mins followed by IL-12 stimulation and measured after 20 mins by AlphaScreen assay; type: cell-based, T-blast cell
[3] = molecular target: T2, Tyrosine-protein kinase JAK1 (Homo sapiens, UniProt P23458); assay: Inhibition of JAK1 in human TF-1 cells assessed as reduction in IL-6 induced STAT3 phosphorylation at Tyr705 residue preincubated for 30 mins followed by IL-6 stimulation and measured after 30 mins by AlphaScreen assay; type: cell-based
T2 sequence (P23458 whole entry): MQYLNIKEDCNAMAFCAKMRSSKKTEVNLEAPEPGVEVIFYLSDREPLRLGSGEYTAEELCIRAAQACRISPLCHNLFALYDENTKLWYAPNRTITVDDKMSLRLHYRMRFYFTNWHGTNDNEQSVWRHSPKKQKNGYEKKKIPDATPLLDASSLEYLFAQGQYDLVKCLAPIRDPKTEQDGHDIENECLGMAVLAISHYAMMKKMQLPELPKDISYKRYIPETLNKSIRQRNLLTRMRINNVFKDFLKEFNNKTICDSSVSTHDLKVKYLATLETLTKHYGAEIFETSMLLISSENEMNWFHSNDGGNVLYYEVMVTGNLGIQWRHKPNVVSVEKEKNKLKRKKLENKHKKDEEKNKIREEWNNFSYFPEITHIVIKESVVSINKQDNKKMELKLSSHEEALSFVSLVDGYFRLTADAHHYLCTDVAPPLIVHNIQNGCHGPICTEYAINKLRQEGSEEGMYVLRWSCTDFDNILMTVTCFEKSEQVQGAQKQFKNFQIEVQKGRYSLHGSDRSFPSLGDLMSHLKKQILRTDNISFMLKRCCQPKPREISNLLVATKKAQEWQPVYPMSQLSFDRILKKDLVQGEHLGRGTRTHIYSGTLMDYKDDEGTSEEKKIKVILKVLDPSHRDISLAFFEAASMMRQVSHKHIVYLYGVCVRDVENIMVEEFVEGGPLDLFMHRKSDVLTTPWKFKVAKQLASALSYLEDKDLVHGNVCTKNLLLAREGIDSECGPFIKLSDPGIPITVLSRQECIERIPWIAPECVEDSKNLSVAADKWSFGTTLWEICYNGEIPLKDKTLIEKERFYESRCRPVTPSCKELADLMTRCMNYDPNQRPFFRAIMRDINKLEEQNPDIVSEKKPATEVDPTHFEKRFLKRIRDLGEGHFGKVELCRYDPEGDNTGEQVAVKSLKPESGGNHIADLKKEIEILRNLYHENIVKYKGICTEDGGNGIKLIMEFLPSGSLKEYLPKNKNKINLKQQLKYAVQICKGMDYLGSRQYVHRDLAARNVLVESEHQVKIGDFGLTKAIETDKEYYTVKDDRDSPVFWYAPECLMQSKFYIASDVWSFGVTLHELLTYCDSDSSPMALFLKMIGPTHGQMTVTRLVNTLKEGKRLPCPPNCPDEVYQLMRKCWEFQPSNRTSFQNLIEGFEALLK

[4] = Metabolic stability in human hepatocytes assessed as intrinsic clearance for unbound fraction of drug; type: ADME, cell-based, Hepatocyte
[5] = Thermodynamic solubility in PBS at pH 7.4; type: physicochemical; conditions: read-out: Therm_solubility
[6] = molecular target: T3, CYP3A4 (Homo sapiens, UniProt P08684); assay: Time dependent inhibition of CYP3A4 in human liver microsomes using midazolam as substrate assessed as 1'-OH midazolam metabolite formation at 50 uM preincubated for 30 mins in presence of NADPH followed by substrate addition and measured after 15 mins by HPLC-MS/MS analysis relative to control; type: ADME, Microsome; conditions: probe midazolam, time 45 min, read-out: TDI
T3 sequence (P08684 whole entry): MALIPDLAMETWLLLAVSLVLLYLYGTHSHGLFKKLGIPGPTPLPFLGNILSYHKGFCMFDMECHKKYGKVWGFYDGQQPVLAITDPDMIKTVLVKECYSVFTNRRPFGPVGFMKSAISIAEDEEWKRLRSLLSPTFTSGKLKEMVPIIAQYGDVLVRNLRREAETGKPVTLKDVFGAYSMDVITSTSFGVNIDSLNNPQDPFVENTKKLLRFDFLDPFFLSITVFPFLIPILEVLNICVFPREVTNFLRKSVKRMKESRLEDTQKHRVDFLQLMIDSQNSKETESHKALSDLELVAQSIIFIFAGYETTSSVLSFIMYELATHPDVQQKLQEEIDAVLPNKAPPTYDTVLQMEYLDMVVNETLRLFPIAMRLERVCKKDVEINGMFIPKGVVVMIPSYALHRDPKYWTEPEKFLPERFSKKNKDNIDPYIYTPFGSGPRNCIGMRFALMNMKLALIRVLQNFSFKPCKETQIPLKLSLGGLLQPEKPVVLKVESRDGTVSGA

[7] = molecular target: T3, CYP3A4; assay: Induction of CYP3A4 in human hepatocytes assessed as fold increase in mRNA level at 10 uM incubated for 24 hrs by RT-qPCR analysis relative to control; type: ADME, cell-based, Hepatocyte; conditions: read-out: FC
[8] = molecular target: T3, CYP3A4; assay: Induction of CYP3A4 in human hepatocytes assessed as maximum activation in mRNA level at 10 uM incubated for 24 hrs by RT-qPCR analysis relative to control; type: ADME, cell-based, Hepatocyte; conditions: read-out: max activation
[9] = molecular target: T1, Non-receptor tyrosine-protein kinase TYK2; assay: Inhibition of TYK2 JH1 domain (unknown origin) by TR-FRET assay
[10] = molecular target: T2, Tyrosine-protein kinase JAK1; assay: Inhibition of JAK1 JH1 domain (unknown origin) by TR-FRET assay
[11] = Selectivity ratio of IC50 for inhibition of TYK2 JH1 domain (unknown origin) to IC50 for inhibition of recombinant human N-terminal His-tagged TYK2 JH2 domain (577 to 870 residues) expressed in Sf9 cells
[12] = Selectivity ratio of IC50 for inhibition of JAK1 JH1 domain (unknown origin) to IC50 for inhibition of recombinant human N-terminal His-tagged TYK2 JH2 domain (577 to 870 residues) expressed in Sf9 cells
[13] = molecular target: Tyrosine-protein kinase JAK2 (Homo sapiens, UniProt O60674); assay: Inhibition of JAK2 in human UT7 cells assessed as reduction in erythropoietin induced STAT5 phosphorylation preincubated for 30 mins followed by erythropoietin stimulation and measured after 20 mins by AlphaScreen assay; type: cell-based
Tyrosine-protein kinase JAK2, sequence (O60674 whole entry): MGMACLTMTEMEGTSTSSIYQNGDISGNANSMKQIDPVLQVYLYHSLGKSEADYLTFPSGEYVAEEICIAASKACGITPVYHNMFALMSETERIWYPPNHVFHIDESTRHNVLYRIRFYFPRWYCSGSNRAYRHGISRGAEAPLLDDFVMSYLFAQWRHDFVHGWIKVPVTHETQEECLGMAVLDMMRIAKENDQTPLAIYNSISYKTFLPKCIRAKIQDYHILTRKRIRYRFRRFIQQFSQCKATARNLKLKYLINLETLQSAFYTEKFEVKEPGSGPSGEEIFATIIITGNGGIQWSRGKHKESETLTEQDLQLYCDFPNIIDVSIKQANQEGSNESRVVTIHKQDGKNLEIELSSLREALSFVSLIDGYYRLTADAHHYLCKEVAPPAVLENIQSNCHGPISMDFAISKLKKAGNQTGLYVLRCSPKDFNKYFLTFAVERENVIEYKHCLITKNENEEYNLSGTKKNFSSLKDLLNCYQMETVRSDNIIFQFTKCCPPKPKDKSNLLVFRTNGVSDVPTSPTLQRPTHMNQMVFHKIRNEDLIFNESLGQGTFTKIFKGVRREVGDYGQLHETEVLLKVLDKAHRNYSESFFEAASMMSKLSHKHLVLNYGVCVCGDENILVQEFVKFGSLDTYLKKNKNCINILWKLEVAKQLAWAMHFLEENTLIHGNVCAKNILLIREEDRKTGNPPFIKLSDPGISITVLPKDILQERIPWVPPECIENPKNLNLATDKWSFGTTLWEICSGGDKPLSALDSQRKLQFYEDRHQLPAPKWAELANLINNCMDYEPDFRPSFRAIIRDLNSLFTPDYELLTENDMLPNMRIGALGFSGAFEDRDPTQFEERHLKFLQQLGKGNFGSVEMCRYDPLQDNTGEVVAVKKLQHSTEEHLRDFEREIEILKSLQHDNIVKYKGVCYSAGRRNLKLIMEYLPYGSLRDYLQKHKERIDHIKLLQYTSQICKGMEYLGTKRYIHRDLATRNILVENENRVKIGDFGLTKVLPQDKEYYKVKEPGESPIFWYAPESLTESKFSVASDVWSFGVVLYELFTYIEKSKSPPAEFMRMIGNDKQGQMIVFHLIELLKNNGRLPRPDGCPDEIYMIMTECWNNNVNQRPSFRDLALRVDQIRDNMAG

[14] = molecular target: T4, Tyrosine-protein kinase JAK3 (Homo sapiens, UniProt P52333); assay: Inhibition of JAK3 in human T-blast cells assessed as reduction in IL-2 induced STAT5 phosphorylation preincubated for 30 mins followed by IL-2 stimulation and measured after 20 mins by AlphaScreen assay; type: cell-based, T-blast cell
T4 sequence (P52333 whole entry): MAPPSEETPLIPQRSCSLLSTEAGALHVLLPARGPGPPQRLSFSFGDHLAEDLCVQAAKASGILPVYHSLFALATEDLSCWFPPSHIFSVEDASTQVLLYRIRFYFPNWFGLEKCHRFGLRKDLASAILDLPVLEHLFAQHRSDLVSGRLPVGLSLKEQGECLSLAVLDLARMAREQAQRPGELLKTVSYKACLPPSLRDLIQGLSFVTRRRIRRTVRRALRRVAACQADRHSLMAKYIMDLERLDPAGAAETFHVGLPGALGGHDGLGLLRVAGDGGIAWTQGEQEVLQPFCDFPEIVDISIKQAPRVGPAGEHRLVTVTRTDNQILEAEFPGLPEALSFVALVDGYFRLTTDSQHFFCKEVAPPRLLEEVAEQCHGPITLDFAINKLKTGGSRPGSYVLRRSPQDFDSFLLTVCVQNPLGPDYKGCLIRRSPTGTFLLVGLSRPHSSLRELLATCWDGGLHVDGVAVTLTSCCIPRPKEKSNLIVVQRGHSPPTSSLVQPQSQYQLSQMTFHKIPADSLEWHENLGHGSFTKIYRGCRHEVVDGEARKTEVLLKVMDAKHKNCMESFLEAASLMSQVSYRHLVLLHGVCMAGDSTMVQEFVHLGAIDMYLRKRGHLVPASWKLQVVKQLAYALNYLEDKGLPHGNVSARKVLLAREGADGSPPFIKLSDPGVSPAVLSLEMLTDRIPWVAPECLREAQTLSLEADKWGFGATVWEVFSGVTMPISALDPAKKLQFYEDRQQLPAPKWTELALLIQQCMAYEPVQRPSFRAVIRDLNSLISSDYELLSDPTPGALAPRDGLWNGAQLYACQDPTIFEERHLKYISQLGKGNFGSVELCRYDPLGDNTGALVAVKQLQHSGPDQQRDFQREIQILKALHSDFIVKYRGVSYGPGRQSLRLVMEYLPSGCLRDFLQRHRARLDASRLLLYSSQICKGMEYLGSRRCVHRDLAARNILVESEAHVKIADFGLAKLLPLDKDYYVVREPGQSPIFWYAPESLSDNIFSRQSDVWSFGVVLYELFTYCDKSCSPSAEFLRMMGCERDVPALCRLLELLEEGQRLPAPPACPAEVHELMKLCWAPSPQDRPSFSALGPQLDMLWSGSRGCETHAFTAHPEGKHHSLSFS

[15] = Unbound clearance in rat blood at 1 mg/kg, iv or 1 mg/kg,po; type: ADME, organism-based; conditions: in vivo
[16] = Half life in rat at 1 mg/kg, iv or 1 mg/kg,po; type: ADME, organism-based; conditions: in vivo
[17] = Volume of distribution at steady state in rat at 1 mg/kg, iv or 1 mg/kg,po; type: ADME, organism-based; conditions: in vivo, read-out: Vdss
[18] = Oral bioavailability in rat at 1 mg/kg; type: ADME, organism-based; conditions: in vivo
[19] = Metabolic stability in dog hepatocytes assessed as intrinsic clearance for unbound fraction of drug; type: ADME, cell-based, Canis lupus familiaris, Hepatocyte
[20] = Metabolic stability in monkey hepatocytes assessed as intrinsic clearance for unbound fraction of drug; type: ADME, cell-based, Macaca mulatta, Hepatocyte; conditions: rhesus monkey
[21] = Unbound clearance in dog blood at 0.5 mg/kg, iv; type: ADME, organism-based, Canis lupus familiaris; conditions: in vivo
[22] = Half life in dog at 0.5 mg/kg, iv; type: ADME, organism-based, Canis lupus familiaris; conditions: in vivo
[23] = AUC (0 to infinity) in dog at 0.5 mg/kg,po; type: ADME, organism-based, Canis lupus familiaris; set-up: dose 0.5 mg/kg, route po; conditions: in vivo
[24] = Oral bioavailability in dog at 0.5 mg/kg; type: ADME, organism-based, Canis lupus familiaris; conditions: in vivo
[25] = Unbound clearance in cynomolgus monkey blood at 0.5 mg/kg, iv; type: ADME, organism-based, Macaca fascicularis; conditions: in vivo
[26] = Half life in cynomolgus monkey at 0.5 mg/kg, iv; type: ADME, organism-based, Macaca fascicularis; conditions: in vivo

Structure (SMILES)	IC50 [1]	EC50 [2]	EC50 [3]	CL free [4]	solubility thermodynamic [5]	inhibition at 0.25 h, 50 µM [6]	fold induction at 24 h, 10 µM [7]	Emax at 24 h, 10 µM [8]	further results
CN(C)S(=O)(=O)c1cccc(-c2c[nH]c3cnc(NC(=O)C4CC4)cc23)c1	480 nM	540 nM	36300 nM	765 mL/min/kg	< 0.8 µM	–	–	–	–
COCCOc1cc(-c2cn(C)c3cnc(NC(C)=O)cc23)nc([C@]2(OC)CCOC2)c1	–	30 nM	–	110 mL/min/kg	–	6%	4	42%	–
CCS(=O)(=O)c1cccc(-c2cn(C)c3cnc(NC(C)=O)cc23)n1	9 nM	93 nM	17700 nM	85 mL/min/kg	–	–	–	–	–
CO[C@@]1(c2cc(OC(F)F)cc(-c3cn(C)c4cnc(NC(C)=O)cc34)n2)CCOC1	–	–	–	102 mL/min/kg	–	53%	6	64%	–
CO[C@@]1(c2cccc(-c3cn(C)c4cnc(NC(C)=O)cc34)n2)CCOC1	30 nM	–	–	80 mL/min/kg	20 µM (≈ 7.33 µg/mL)	–	–	–	–
CO[C@@]1(c2cc(C(F)F)cc(-c3cn(C)c4cnc(NC(C)=O)cc34)n2)CCOC1	–	40 nM	–	31.7 mL/min/kg	–	49%	7.7	23%	–
CO[C@@]1(c2cc(OCC#N)cc(-c3cn(C)c4cnc(NC(C)=O)cc34)n2)CCOC1	–	–	–	33 mL/min/kg	–	–	–	–	–
CO[C@@]1(c2cc(C#N)cc(-c3cn([C@@H]4CC4(F)F)c4cnc(NC(C)=O)cc34)n2)CCOC1	–	–	–	68.3 mL/min/kg	–	20%	13	40%	–
CO[C@@]1(c2cc(O[C@@H](C)CCO)cc(-c3cn(C)c4cnc(NC(C)=O)cc34)n2)CCOC1	–	–	> 20000 nM	102 mL/min/kg	190 µM (≈ 86.4 µg/mL)	21%	1.8	3%	EC50 [13]: > 20000 nM; EC50 [14]: > 20000 nM; CL free [15]: 102 mL/min/kg; half-life [16]: 0.5 h; Vd [17]: 2.5 L/kg; bioavailability [18]: 16%; CL free [19]: 30 mL/min/kg; CL free [20]: 107 mL/min/kg; CL free [21]: 41.7 mL/min/kg; half-life [22]: 3 h; AUC(0-inf) [23]: 300 ng·h/mL; bioavailability [24]: 71%; CL free [25]: 78.3 mL/min/kg; half-life [26]: 1.4 h
CC(=O)Nc1cc2c(-c3cccc(S(=O)(=O)N(C)C)c3)cn(C)c2cn1	10 nM	20 nM	6800 nM	140 mL/min/kg	3.2 µM (≈ 1.19 µg/mL)	–	–	–	–
CC(=O)Nc1cc2c(-c3cccc(S(=O)(=O)C4COC4)n3)cn(C)c2cn1	35 nM	194 nM	14000 nM	–	–	–	–	–	–
CO[C@@]1(c2cccc(-c3cn(C)c4cnc(NC(N)=O)cc34)n2)CCOC1	5 nM	60 nM	–	41.7 mL/min/kg	16 µM (≈ 5.88 µg/mL)	–	–	–	–

The next lines start with results.

IC50 [1]	EC50 [2]	EC50 [3]	CL free [4]	solubility thermodynamic [5]	inhibition at 0.25 h, 50 µM [6]	fold induction at 24 h, 10 µM [7]	Emax at 24 h, 10 µM [8]	Structure (SMILES)	further results
60 nM	1500 nM	–	80 mL/min/kg	29 µM (≈ 10.6 µg/mL)	–	–	–	CO[C@]1(c2cccc(-c3cn(C)c4cnc(NC(C)=O)cc34)n2)CCOC1	–
4 nM	24 nM	3400 nM	132 mL/min/kg	2.4 µM (≈ 0.896 µg/mL)	–	–	–	CC(=O)Nc1cc2c(-c3cccc(S(=O)(=O)N(C)C)n3)cn(C)c2cn1	–
30 nM	120 nM	19700 nM	113 mL/min/kg	1.2 µM (≈ 0.43 µg/mL)	–	–	–	CC(=O)Nc1cc2c(-c3cccc(S(=O)(=O)N(C)C)c3)c[nH]c2cn1	IC50 [9]: 6000 nM; IC50 [10]: 40000 nM; Ratio IC50 [11]: > 200; Ratio IC50 [12]: > 200; EC50 [13]: > 19000 nM; EC50 [14]: > 19000 nM
–	–	–	12.5 mL/min/kg	–	43%	13	49%	COc1cc(-c2cn(C3COC3)c3cnc(NC(C)=O)cc23)nc([C@]2(OC)CCOC2)c1	–
–	77 nM	> 20000 nM	–	105 µM (≈ 47.7 µg/mL)	8%	2.6	6%	CO[C@@]1(c2cc(OCC[C@@H](C)O)cc(-c3cn(C)c4cnc(NC(C)=O)cc34)n2)CCOC1	EC50 [13]: > 20000 nM; EC50 [14]: > 20000 nM; CL free [15]: 567 mL/min/kg; half-life [16]: 1.1 h; Vd [17]: 19 L/kg; bioavailability [18]: 26%
